The text below walks through data of US20020155192A1, “Yeast transport isoforms” (priority 2000, published 2002).

For experiment [1], the target named is T1, Odc1p (Saccharomyces cerevisiae, UniProt Q03028).
T1 construct: made in house; host or cells: S. cerevisiae odc1Δodc2Δ (YPH499 background) carrying pYES2-based pODC1; purified from mitochondria on Ni-NTA agarose
T1 sequence (Q03028 1-310): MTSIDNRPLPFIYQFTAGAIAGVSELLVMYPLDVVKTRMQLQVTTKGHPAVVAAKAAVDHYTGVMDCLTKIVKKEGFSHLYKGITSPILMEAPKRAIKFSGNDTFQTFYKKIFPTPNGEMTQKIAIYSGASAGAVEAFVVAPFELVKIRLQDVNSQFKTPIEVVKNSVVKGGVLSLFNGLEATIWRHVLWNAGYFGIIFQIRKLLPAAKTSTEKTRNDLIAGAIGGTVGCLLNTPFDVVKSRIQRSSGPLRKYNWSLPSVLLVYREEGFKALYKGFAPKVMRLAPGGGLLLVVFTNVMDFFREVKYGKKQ
The experiment in a line: Effect of inhibitors and external compounds on the [14C]oxoglutarate/oxoglutarate exchange by proteoliposomes reconstituted with Odc1p. Type of experiment: biochemical. The settings on record: for Inhibition (%) of [14C]oxoglutarate/oxoglutarate exchange: 20 mM internal oxoglutarate, 0.4 mM [14C]oxoglutarate, 45 seconds, inhibitors 4 mM, except mercurials 10 μM, carboxyatractyloside 0.1 mM, N-ethylmaleimide and α-cyanocinnamate 2 mM; for inhibition of [14C]oxoglutarate/oxoglutarate exchange (in words): Table III. On the procedure:
FIG. 5. Effect of dicarboxylates and 2-oxodicarboxylates with different carbon chain length on the rate of [^14C]oxoglutarate uptake into proteoliposomes reconstituted with recombinant Odc1p. Proteoliposomes were preloaded with 20 mM oxoglutarate and reconstituted with recombinant Odc1p. Transport was initiated by the addition of 0.4 mM [^14C]oxoglutarate and terminated after 45 seconds. Oxalate, malonate, succinate, glutarate, adipate, pimelate, suberate (▪) and the corresponding 2-oxoacids (●) were added simultaneously with [1^4C]oxoglutarate at 4.0 mM concentration.
(§1) Reconstitution of the ODC proteins into liposomes—Purified ODC proteins were reconstituted by cyclic removal of the detergent with a hydrophobic column (13). The composition of the initial mixture used for reconstitution was: 200 μl of purified isoform (0.3-0.4 μg of protein), 70 μl of 10% Triton X-114, 100 μl of 10% phospholipids in the form of sonicated liposomes, 20 mM oxoglutarate (except where otherwise indicated), 10 mM Pipes (pH 7.0), 0.7 mg of cardiolipin (Sigma) and water to a final volume of 700 μl. These components were mixed thoroughly, and the mixture was recycled 13 times through an Amberlite column (Supelco) (3.0 cm×0.5 cm) preequilibrated with a buffer containing 10 mM Pipes (pH 7.0) and with the substrate at the same concentration as in the starting mixture. All operations were performed at 4° C., except the passages through Amberlite, which were carried out at room temperature.
(§2) External substrate was removed from proteoliposomes on a Sephadex G-75 column preequilibrated with buffer F (50 mM NaCl and 10 mM PIPES, pH 7.0). Transport at 25° C. was started by adding [^14C]oxoglutarate (unless otherwise indicated) to the proteoliposomes, and terminated by addition of 30 mM pyridoxal 5′-phosphate and 10 mM bathophenanthroline (the “inhibitor-stop” method (13)). In controls, inhibitors were added with the labelled substrate. The external radioactivity was removed on Sephadex G-75 and the internal radioactivity was measured. […] The initial rate of transport was calculated in mmol/min per g protein from the time course of isotope equilibration (13). Various other transport activities were also assayed by the inhibitor-stop method. For efflux measurements, the internal substrate pool of the proteoliposomes was made radioactive by carrier-mediated exchange equilibration (13) with 0.1 mM [^14C]oxoglutarate added at high specific radioactivity. After 60 min, the residual external radioactivity was removed by passing the proteoliposomes again through a column of Sephadex G-75. Efflux was started by adding unlabelled external substrate or buffer F alone and terminated by adding the inhibitors indicated above.
(§3) In addition, the ability of non-radioactive potential substrates to inhibit the oxoglutarate/oxoglutarate exchange was examined.
Proteoliposomes were preloaded internally with 20 mM oxoglutarate and transport was initiated by the addition of 0.4 mM [^14C]oxoglutarate.

Experiment [2] deals with T2, Odc2p (Saccharomyces cerevisiae, UniProt Q99297).
T2 construct: made in house; host or cells: S. cerevisiae odc1Δodc2Δ (YPH499 background) carrying pYES2-based pODC2; purified from mitochondria on Ni-NTA agarose
T2 sequence (Q99297 1-307): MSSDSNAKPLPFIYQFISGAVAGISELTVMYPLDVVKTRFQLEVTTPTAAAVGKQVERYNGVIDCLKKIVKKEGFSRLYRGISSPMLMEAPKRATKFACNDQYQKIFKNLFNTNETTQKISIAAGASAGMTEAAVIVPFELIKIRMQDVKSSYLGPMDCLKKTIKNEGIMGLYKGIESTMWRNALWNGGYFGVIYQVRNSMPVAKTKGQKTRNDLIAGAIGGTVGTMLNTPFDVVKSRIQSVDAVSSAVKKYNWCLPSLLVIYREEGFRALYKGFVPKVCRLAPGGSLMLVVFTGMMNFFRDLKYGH
Description: Effect of inhibitors and external compounds on the [14C]oxoglutarate/oxoglutarate exchange by proteoliposomes reconstituted with Odc2p. Format: biochemical. Conditions: for Inhibition (%) of [14C]oxoglutarate/oxoglutarate exchange: 20 mM internal oxoglutarate, 0.4 mM [14C]oxoglutarate, 45 seconds, inhibitors 4 mM, except mercurials 10 μM, carboxyatractyloside 0.1 mM, N-ethylmaleimide and α-cyanocinnamate 2 mM; for inhibition of [14C]oxoglutarate/oxoglutarate exchange (in words): Table III. On the procedure: as §1, §2, §3
Proteoliposomes were preloaded internally with 20 mM oxoglutarate and transport was initiated by the addition of 0.4 mM [^14C]oxoglutarate. The incubation time was 45 seconds. Thiol reagents and α-cyanocinnamate were added 2 min before the labelled substrate; the other inhibitors and external substrates were added together with [^14C]oxoglutarate. The final concentration of the inhibitors was 4 mM, except for mercurials (10 μM), carboxyatractyloside (0.1 mM), N-ethylmaleimide and α-cyanocinnamate (2 mM).

The mark [3] stands for this setting: Odc1p, added with 0.4 mM [14C]oxoglutarate, 4.0 mM in FIG. 5, partly data not shown.

Read-outs that look alike come from different tables or passages of the source.

As for `NC(C(=O)O)C(O)C(=O)O` (racemic) [DL-Threo-hydroxyaspartate], the “effect of non-radioactive potential substrates on the rate of oxoglutarate uptake (in words)” value was “no affect” in experiment [1] (setting [3]) and “no affect” in experiment [2] (Odc2p, data not shown).
Regarding `O=C(O)c1cccc(C(=O)O)c1C(=O)O` [1,2,3-Benzenetricarboxylate], in experiment [1] (Odc1p), the “Inhibition (%) of [14C]oxoglutarate/oxoglutarate exchange” value amounted to 41% and the “inhibition of [14C]oxoglutarate/oxoglutarate exchange (in words)” value was “rather mild inhibitory effect”. In experiment [2] (Odc2p), the “Inhibition (%) of [14C]oxoglutarate/oxoglutarate exchange” value was 37% and the “inhibition of [14C]oxoglutarate/oxoglutarate exchange (in words)” value is “rather mild inhibitory effect”.
With `CC(=O)CCCC(=O)O` [5-oxohexanoate], the “effect of oxomonocarboxylates on the rate of uptake of 0.4 mM oxoglutarate (in words)” value was “did not influence” in experiment [1] (Odc1p, 8 mM, 20 times greater than the substrate, data not shown) and “did not influence” in experiment [2] (Odc2p, 8 mM, 20 times greater than the substrate, data not shown).
Consider `CCCCC(C(=O)O)C(=O)O` [Butylmalonate], for which, in experiment [1] (Odc1p), the “Inhibition (%) of [14C]oxoglutarate/oxoglutarate exchange” value is given as 118% and the “inhibition of [14C]oxoglutarate/oxoglutarate exchange (in words)” value is recorded as “rather poorly”. In experiment [2] (Odc2p), the “Inhibition (%) of [14C]oxoglutarate/oxoglutarate exchange” value turned out to be 25% and the “inhibition of [14C]oxoglutarate/oxoglutarate exchange (in words)” value was “rather poorly”.
With `C=C1[C@@H]2CC[C@H]3[C@]4(C)C[C@H](O[C@@H]5O[C@H](CO)[C@@H](OS(=O)(=O)O)[C@H](OS(=O)(=O)O)[C@H]5OC(=O)CC(C)C)CC(C(=O)O)(C(=O)O)[C@H]4CC[C@]3(C2)[C@H]1O` [Carboxyatractyloside], the “Inhibition (%) of [14C]oxoglutarate/oxoglutarate exchange” value stood at 7% in experiment [1] (Odc1p) and 10% in experiment [2] (Odc2p). For the same compound, the “inhibition of [14C]oxoglutarate/oxoglutarate exchange (in words)” value in experiment [1] (Odc1p) and in experiment [2] (Odc2p) was “little or no effect” throughout.
For `O=C(O)[C@@H](O)[C@H](O)C(=O)O` [D-tartrate], the “effect of non-radioactive potential substrates on the rate of oxoglutarate uptake (in words)” value in experiment [1] (setting [3]) was “more efficiently than succinate”; in experiment [2] (Odc2p, data not shown), “more efficiently than succinate”.
For the compound `[Cl][Hg][Cl]` [HgCl2, mercuric chloride], the “Inhibition (%) of [14C]oxoglutarate/oxoglutarate exchange” value in experiment [1] (Odc1p) worked out at 100%; in experiment [2] (Odc2p), 98%. In addition, the “inhibition of [14C]oxoglutarate/oxoglutarate exchange (in words)” value in experiment [1] (Odc1p) and in experiment [2] (Odc2p) was “inhibited strongly” in each case.
For the compound `O=C(O)[C@H](O)[C@@H](O)C(=O)O` [L-tartrate], the “effect of non-radioactive potential substrates on the rate of oxoglutarate uptake (in words)” value is on record as “more efficiently than succinate” in experiment [1] (setting [3]) and “more efficiently than succinate” in experiment [2] (Odc2p, data not shown).
Take `COC(CNC(=O)c1ccccc1OCC(=O)O)[CH2][Hg][OH]` (stereo not shown) [Mersalyl]: in experiment [1] (Odc1p), the “inhibition of [14C]oxoglutarate/oxoglutarate exchange (in words)” value is reported as “inhibited strongly”. In addition, in experiment [2] (Odc2p), the “Inhibition (%) of [14C]oxoglutarate/oxoglutarate exchange” value turned out to be 100% and the “inhibition of [14C]oxoglutarate/oxoglutarate exchange (in words)” value is reported as “inhibited strongly”.
As to `CCN1C(=O)C=CC1=O` [N-Ethylmaleimide], the “Inhibition (%) of [14C]oxoglutarate/oxoglutarate exchange” value came out at 65% in experiment [1] (Odc1p) and 43% in experiment [2] (Odc2p). For the same compound, the “inhibition of [14C]oxoglutarate/oxoglutarate exchange (in words)” value in experiment [1] (Odc1p) and in experiment [2] (Odc2p) was “inhibited considerably” throughout.
`O=C(O)CC(C(=O)O)c1ccccc1` (stereo not shown) [Phenylsuccinate]: in experiment [1] (Odc1p), the “Inhibition (%) of [14C]oxoglutarate/oxoglutarate exchange” value stood at 23% and the “inhibition of [14C]oxoglutarate/oxoglutarate exchange (in words)” value was “rather poorly”. Also, in experiment [2] (Odc2p), the “Inhibition (%) of [14C]oxoglutarate/oxoglutarate exchange” value came to 22% and the “inhibition of [14C]oxoglutarate/oxoglutarate exchange (in words)” value was “rather poorly”.
In the case of `C[C@H](N)C(=O)O` [alanine], the “effect of non-radioactive potential substrates on the rate of oxoglutarate uptake (in words)” value in experiment [1] (setting [3]) is reported as “no effect”; in experiment [2] (Odc2p, data not shown) it was “no effect”.
In the case of `N=C(N)NCCC[C@H](N)C(=O)O` [arginine], the “effect of non-radioactive potential substrates on the rate of oxoglutarate uptake (in words)” value in experiment [1] and in experiment [2] was “no effect” throughout.
In the case of `NC(=O)C[C@H](N)C(=O)O` [asparagine], the “effect of non-radioactive potential substrates on the rate of oxoglutarate uptake (in words)” value in experiment [1] (setting [3]) is “no effect”; in experiment [2] (Odc2p, data not shown) it was “no effect”.
Take `NCC(=O)O` [glycine]: the “effect of non-radioactive potential substrates on the rate of oxoglutarate uptake (in words)” value in experiment [1] (setting [3]) is “no effect”; in experiment [2] (Odc2p, data not shown), “no effect”.
Take `N[C@@H](Cc1c[nH]cn1)C(=O)O` [histidine]: the “effect of non-radioactive potential substrates on the rate of oxoglutarate uptake (in words)” value in experiment [1] (setting [3]) is given as “no effect”; in experiment [2] (Odc2p, data not shown), “no effect”.
For the compound `NCCCC[C@H](N)C(=O)O` [lysine], the “effect of non-radioactive potential substrates on the rate of oxoglutarate uptake (in words)” value in experiment [1] (setting [3]) was “no effect”; in experiment [2] (Odc2p, data not shown) it was “no effect”.
Consider `O=C(O)CC(O)C(=O)O` (stereo not shown) [malate], for which the “increase of the extent of inhibition of oxoglutarate uptake with respect to the corresponding dicarboxylate” value in experiment [1] (Odc1p, C4 hydroxydicarboxylate versus C4 dicarboxylate, not shown) is “about 10 fold”; in experiment [2] (Odc2p, C4 hydroxydicarboxylate versus C4 dicarboxylate, not shown) it was “about 10 fold”.
In the case of `O=S(=O)(O)c1cc[c]([Hg][Cl])cc1` [p-Chloromercuriphenylsulfonate], the results for the “Inhibition (%) of [14C]oxoglutarate/oxoglutarate exchange” value in experiment [1] (Odc1p) and in experiment [2] (Odc2p) were 98% and 100%, respectively. Besides, the “inhibition of [14C]oxoglutarate/oxoglutarate exchange (in words)” value in experiment [1] (Odc1p) and in experiment [2] (Odc2p) was “inhibited strongly” throughout.
Turning to `N[C@@H](CO)C(=O)O` [serine], the “effect of non-radioactive potential substrates on the rate of oxoglutarate uptake (in words)” value in experiment [1] (setting [3]) is given as “no effect”; in experiment [2] (Odc2p, data not shown), “no effect”.
In the case of `O=C(O)C(O)C(=O)O` [tartronate], the “effect of non-radioactive potential substrates on the rate of oxoglutarate uptake (in words)” value in experiment [1] (setting [3]) is “completely ineffective”; in experiment [2] (Odc2p, data not shown), “completely ineffective”.
Regarding `C[C@@H](O)[C@H](N)C(=O)O` [threonine], the “effect of non-radioactive potential substrates on the rate of oxoglutarate uptake (in words)” value in experiment [1] (setting [3]) is “no effect”; in experiment [2] (Odc2p, data not shown) it was “no effect”.
For the compound `CC(C)[C@H](N)C(=O)O` [valine], the “effect of non-radioactive potential substrates on the rate of oxoglutarate uptake (in words)” value in experiment [1] (setting [3]) is listed as “no effect”; in experiment [2] (Odc2p, data not shown) it was “no effect”.
